# According to ChEMBL document CHEMBL1134132, “Development of potent and selective factor Xa inhibitors” (Bioorg Med Chem Lett, 2001):
# What was measured:
# [1] = molecular target: Coagulation factor X (Homo sapiens, UniProt P00742); test: Inhibitory activity against Coagulation factor X in human plasma; format: cell-free
# [2] = molecular target: Plasminogen (Homo sapiens, UniProt P00747); test: Inhibitory activity against plasmin in human plasma; format: cell-free
# [3] = molecular target: Prothrombin (Homo sapiens, UniProt P00734); test: Inhibitory activity against thrombin(fIIa) in human plasma; format: cell-free
# [4] = molecular target: Serine protease 1 (Homo sapiens, UniProt P07477); test: Inhibitory activity against trypsin in human plasma; format: cell-free
# Serine protease 1, sequence (P07477 whole entry): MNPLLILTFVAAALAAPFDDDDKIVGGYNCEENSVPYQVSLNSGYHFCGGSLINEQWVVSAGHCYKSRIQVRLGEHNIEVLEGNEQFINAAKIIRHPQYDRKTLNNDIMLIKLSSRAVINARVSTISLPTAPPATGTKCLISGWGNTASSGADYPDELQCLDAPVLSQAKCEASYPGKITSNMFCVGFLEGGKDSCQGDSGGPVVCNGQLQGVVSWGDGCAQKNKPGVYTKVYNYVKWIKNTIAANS
# [5] = molecular target: Urokinase-type plasminogen activator (Homo sapiens, UniProt P00749)
# [6] = In vitro anticoagulant effect to double the activated partial thromboplastin time in human plasma; format: functional
# Plasminogen, sequence (P00747 97-580 limits assumed): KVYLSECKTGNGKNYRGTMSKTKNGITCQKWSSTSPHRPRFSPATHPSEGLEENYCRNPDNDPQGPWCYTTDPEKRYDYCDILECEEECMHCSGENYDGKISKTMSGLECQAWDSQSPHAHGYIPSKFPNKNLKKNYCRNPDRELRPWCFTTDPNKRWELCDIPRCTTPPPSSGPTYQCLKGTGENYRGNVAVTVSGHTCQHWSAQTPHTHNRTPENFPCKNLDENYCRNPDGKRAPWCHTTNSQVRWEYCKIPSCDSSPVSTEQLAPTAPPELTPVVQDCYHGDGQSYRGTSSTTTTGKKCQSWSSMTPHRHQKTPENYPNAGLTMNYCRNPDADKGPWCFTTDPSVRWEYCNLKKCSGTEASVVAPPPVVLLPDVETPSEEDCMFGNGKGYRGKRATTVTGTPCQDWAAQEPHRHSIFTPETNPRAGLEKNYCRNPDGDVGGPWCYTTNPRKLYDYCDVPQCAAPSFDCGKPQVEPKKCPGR
# Plasminogen, sequence (P00747 581-810 limits assumed): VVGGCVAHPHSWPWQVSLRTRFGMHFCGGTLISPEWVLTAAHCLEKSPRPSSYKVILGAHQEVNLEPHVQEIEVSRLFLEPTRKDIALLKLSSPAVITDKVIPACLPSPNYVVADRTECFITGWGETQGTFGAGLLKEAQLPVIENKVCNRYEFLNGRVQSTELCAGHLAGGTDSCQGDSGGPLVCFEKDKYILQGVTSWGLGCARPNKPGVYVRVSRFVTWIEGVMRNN
# Coagulation factor X, sequence (P00742 41-179 limits assumed): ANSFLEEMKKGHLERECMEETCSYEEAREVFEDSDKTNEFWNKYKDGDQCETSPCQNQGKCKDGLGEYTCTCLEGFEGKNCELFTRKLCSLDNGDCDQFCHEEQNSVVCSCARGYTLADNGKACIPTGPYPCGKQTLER
# Coagulation factor X, sequence (P00742 235-488 limits assumed): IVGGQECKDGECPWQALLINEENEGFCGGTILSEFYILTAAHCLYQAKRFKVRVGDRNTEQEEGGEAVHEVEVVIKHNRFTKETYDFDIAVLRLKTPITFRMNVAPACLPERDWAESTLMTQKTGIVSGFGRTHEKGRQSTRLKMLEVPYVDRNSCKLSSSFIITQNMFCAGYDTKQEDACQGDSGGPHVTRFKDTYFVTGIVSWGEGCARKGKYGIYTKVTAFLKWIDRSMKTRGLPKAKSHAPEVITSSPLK
SMILES,Ki [1] [nM],Ki [2] [nM],Ki [3] [nM],Ki [4] [nM],Ki [5] [nM],2x aPPT [6] [µM]
Cc1cc(C)c(O)c(-c2cc3cc(C(=N)N)ccc3[nH]2)c1,1200,10000,6900,5000,2300,
NC(=O)c1ccc2[nH]c(-c3cc(CCC(=O)O)cc(Br)c3O)c(Cc3ccccc3)c2c1,,,78000,,,
COc1c(Br)cc(CCC(=O)O)cc1-c1[nH]c2ccc(C(=N)N)cc2c1Cc1ccccc1,45,,2500,,,
Cc1cc(Br)c(O)c(-c2[nH]c3ccc(C(=N)N)cc3c2CCCc2ccccc2)c1,7600,32000,6600,42000,8600,
Cc1cc(-c2ccccc2)c(O)c(-c2cc3cc(C(=N)N)ccc3[nH]2)c1,640,1500,4000,1800,110,
N=C(N)c1ccc2[nH]c(-c3cc(Br)cc(CCC(=O)O)c3)c(Cc3ccccc3)c2c1,1000,,12000,,,
N=C(N)c1ccc2[nH]c(-c3cc(CC(=O)O)cc(Br)c3O)c(Cc3ccccc3)c2c1,3,1800,1000,1200,430,0.38
N=C(N)c1ccc2[nH]c(-c3cc(CCCC(=O)O)cc(Br)c3O)c(Cc3ccccc3)c2c1,0.7,1500,40,610,270,0.75
O=C(O)CCc1cc(Br)c(O)c(-c2[nH]c3ccccc3c2Cc2ccccc2)c1,300000,,700000,,,
N=C(N)c1ccc2[nH]c(-c3cc(CC(N)=O)cc(Br)c3O)c(Cc3ccccc3)c2c1,2,,25,,,
Cc1ccc(O)c(-c2cc3cc(C(=N)N)ccc3[nH]2)c1,,21000,23000,8200,12400,
N=C(N)c1ccc2[nH]c(-c3cc(Cc4nn[nH]n4)cc(Br)c3O)c(Cc3ccccc3)c2c1,20,2200,440,840,350,0.59
N=C(N)c1ccc2[nH]c(-c3cc(C(=O)O)cc(Br)c3O)c(Cc3ccccc3)c2c1,4,1500,,440,,0.55
N=C(N)c1ccc2[nH]c(-c3cc(-c4nn[nH]n4)cc(Br)c3O)c(Cc3ccccc3)c2c1,10,4200,350,1300,550,0.7

# Continued by falling Ki [3], values first:
Ki [1] [nM],Ki [2] [nM],Ki [3] [nM],Ki [4] [nM],Ki [5] [nM],SMILES,2x aPPT [6] [µM]
10,3000,750,1300,350,CC(C)(C(=O)O)c1cc(Br)c(O)c(-c2[nH]c3ccc(C(=N)N)cc3c2Cc2ccccc2)c1,0.93
350,8800,710,3400,2300,Cc1cc(Br)c(O)c(-c2[nH]c3ccc(C(=N)N)cc3c2CCc2ccccc2)c1,
130,1000,460,700,190,Cc1cc(Cl)c(O)c(-c2cc3cc(C(=N)N)ccc3[nH]2)c1,
100,1200,360,640,110,Cc1cc(Br)c(O)c(-c2cc3cc(C(=N)N)ccc3[nH]2)c1,
0.5,1200,330,3800,400,N=C(N)c1ccc2[nH]c(-c3cc(CCOP(=O)(O)O)cc(Br)c3O)c(Cc3ccccc3)c2c1,0.42
20,4600,260,2400,1600,Cc1cc(Br)c(O)c(-c2[nH]c3ccc(C(=N)N)cc3c2Cc2ccccc2)c1,3.9
0.5,1700,120,600,280,N=C(N)c1ccc2[nH]c(-c3cc(CCC(=O)O)cc(Br)c3O)c(Cc3ccccc3)c2c1,0.52
3,,80,,,COC(=O)Cc1cc(Br)c(O)c(-c2[nH]c3ccc(C(=N)N)cc3c2Cc2ccccc2)c1,
2,,43,,,CN(C)C(=O)Cc1cc(Br)c(O)c(-c2[nH]c3ccc(C(=N)N)cc3c2Cc2ccccc2)c1,
